What all share (format): in vivo, human
One assay has as its system LDL-C. In words: LDL-C in patients with diabetes mellitus-2 (Example 2). The conditions noted are these: 4 g/day; for Median placebo-adjusted percent change in LDL-C from baseline to study end: 12 weeks, on statin. The source says:
(§1) Parameters (a)-(y) can be measured in accordance with any clinically acceptable methodology. For example, triglycerides, total cholesterol, HDL-C and fasting blood sugar can be sample from serum and analyzed using standard photometry techniques. VLDL-TG, LDL-C and VLDL-C can be calculated or determined using serum lipoprotein fractionation by preparative ultracentrifugation and subsequent quantitative analysis by refractometry or by analytic ultracentrifugal methodology. Apo A1, Apo B and hsCRP can be determined from serum using standard nephelometry techniques. Lipoprotein (a) can be determined from serum using standard turbidimetric immunoassay techniques. LDL particle number and particle size can be determined using nuclear magnetic resonance (NMR) spectrometry. Remnants lipoproteins and LDL-phospholipase A2 can be determined from EDTA plasma or serum and serum, respectively, using enzymatic immunoseparation techniques. Oxidized LDL, intercellular adhesion molecule-1 and interleukin-2 levels can be determined from serum using standard enzyme immunoassay techniques. These techniques are described in detail in standard textbooks, for example Tietz Fundamentals of Clinical Chemistry, 6th Ed. (Burtis, Ashwood and Borter Eds.), WB Saunders Company.
The effect of >96% E-EPA on lipid and inflammatory parameters was evaluated in patients with fasting triglyceride levels ≧150 mg/dl and <499 mg/dl on concomitant statin therapy. Patients with diabetes mellitus-2 were randomized and treated with either 2 g/day >96% E-EPA, 4 g/day >96%, or placebo for twelve weeks. At the end of the treatment period, several diabetes efficacy endpoints were evaluated including, TG, LDL-C, non-HDL-C, VLDL-C, Lp-PLA2, Apo B, TC, HDL-C, VLDL-TG, hs-CRP, oxLDL, and RLP-C.

The next assay deals with Lp-PLA2. In words: MARINE study, Lp-PLA2. Particulars: MARINE ITT; 2 g/day; week 12.
From the text: as §1, with “Company. […]” for “Company.”

The next assay has as its system ICAM-1. Nature of the assay: ANCHOR study (fasting TG ≧200 and <500 mg/dl despite statin), ICAM-1. Particulars: ANCHOR ITT, week 12.
From the text: as §1
A multi-center, placebo-controlled, randomized, double-blind, 12-week study was performed to evaluate the efficacy and safety of >96% E-EPA in patients with fasting triglyceride levels ≧200 mg/dl and <500 mg/dl despite statin therapy (the mean of two qualifying entry values needed to be ≧185 mg/dl and at least one of the values needs to be ≧200 mg/dl). The primary objective of the study was to determine the efficacy of >96% E-EPA 2 g daily and 4 g daily, compared to placebo, in lowering fasting TG levels in patients with high risk for cardiovascular disease and with fasting TG levels ≧200 mg/dL and <500 mg/dL, despite treatment to LDL-C goal on statin therapy. […]

Take `CC/C=C\C/C=C\C/C=C\C/C=C\C/C=C\CCCC(=O)OCC` [AMR101, all-cis eicosa-5,8,11,14,17-pentaenoic acid ethyl ester]: the “Median placebo-adjusted percent change in LDL-C from baseline to study end” value in the assay on LDL-C (less-controlled diabetes (HbA1c ≧ median of 6.8%)) is −5.7%; in the assay with LDL-C (total diabetes), −6.3%; in the assay on LDL-C (well-controlled diabetes (HbA1c < median of 6.8%)), −6.6%. Besides, the “LDL-C levels between well-controlled, less-controlled and all diabetic subjects” value with LDL-C (twelve weeks) is recorded as “no significant decrease in LDL-C levels”. Further, the “Lp-PLA2 change from baseline (median)” value in the assay with Lp-PLA2 is given as −5.1%. The entries for the “ICAM-1 change from baseline (median)” value in the assay on ICAM-1 (2 g/day) and in the assay on ICAM-1 (4 g/day) were 0.5% and 0.8%, respectively. In addition, in the assay with ICAM-1 (4 g/day), the “ICAM-1 end-of-treatment value (median)” value was determined as 270.0 ng/mL.
